Values of other authors as cited in patent publication US20170326154A1, “Pre-Operative Composition for Sedation or Analgesia” (priority 2016, published 2017).
Like-named read-outs stand apart in the source and are kept apart here.

What was measured:
[1] = basic drug, nitrogen atom in the imidazole ring

## Cc1ncc2n1-c1ccc(Cl)cc1C(c1ccccc1F)=NC2 [Midazolam, 8-chloro-6-(2′-fluorophenyl)-1-methyl-4H-imidazo[1,5-a][1,4]-benzodiazepine]
Intranasal administration
  adequate sedation within (time): 10 to 15 min
Oral administration
  adequate sedation within (time): 10 to 20 min
[1]
  pKa value: 5.5 and 6.2
